Tested on: osteocytes containing osteoclasts
Assay: Pit formation assay (bone resorption inhibition on ivory slices)
Assay type: cell-based, ICR mice
Conditions: compound 1 × 10^−5 M, ivory piece, 3 days culture; for inhibition at 10 µM: Mus musculus, Osteoclast, 72 h, 0% = no compound with rPTH 1×10^−8 M, 100% = no resorption cavity, read-out: Inhibiting rate; for Number of resorption cavity (mean ± SD): rPTH 1×10^−8 M
Experimental: ICR mice 11-12 days old (Charles River) were subjected to euthanasia through ether anesthesia, and disinfected by dipping in 70% ethanol immediately. Subsequently, a femur and a shank of a mouse was removed, chopped in an -MEM culture medium (Flow Labs Corp.) containing 5% FBS (Irving Scientific Corp.), 100 U/mL penicillin, and 100 µg/mL streptomycin. Supernatant obtained by pipetting was collected, washed with culture medium solution, suspended in a solution containing 5% FBS and -MEM culture medium to yield osteocytes containing osteoclasts. Supernatant of osteocyte suspending solution was taken 3 minutes after standing still to pass through meshes (Cell Strainer, 70 m, Falcon Corp.). The filtrate was adjusted to the concentration of 1 107 cells/mL to use for pit formation assay.
(2) Test by the pit formation assay
An ivory piece was cut into slices in 150 m thickness by using a precision, low speed cutter (Buehler Corp.) and punched to make a cylinderial holes in 6 mm diameter. The ivory piece was dipped in 70% ethanol, treated by sonication for 5 minutes twice, and washed with sterilized PBS three times and with culture medium twice. The ivory piece was put in pits of a 96-pit culture plate (Falcon Corp.), 100 μl of culture medium, that contains a chemical compound of the present invention adjusted to a concentration of 2×10^−5 M, was poured into each pit, and 100 μL of culture medium, that contains 1×10^7 osteocytes/mL previously prepared, into each pit (the final concentration of the compound was 1×10^−5 M), and finally cultivation was carried out in an incubator under 37° C. and 10% CO2 for 3 days. Then cells on an ivory piece were removed in 2 M sodium hydroxide solution, washed with water and methanol to stain resorption cavity with Coomassie Brilliant Blue and count numbers of absorbed cavities under a microscope. The inhibition rate of bone resorption was calculated on the basis that resorption cavity was assumed 0% in the case of no addition of the compound under the presence of rPTH (1×10^−8 M) in the solution and the case of no resorption cavity was assumed 100%. A good result was yielded in the same experiment with variation of resorption cavity numbers among experimental groups due to a difference among proportions of various cell in the solution, in which osteocytes were suspended, and also among the lot numbers of used animals.

Structure (SMILES)	inhibition at 10 µM [%]	Number of resorption cavity (mean ± SD)
CC(C)CC(=O)C1C(=O)N(Cc2ccccc2)C(=O)N(Cc2ccccc2)C1=O [Compound No. 1, 1,3-Dibenzyl-5-(3-methyl-1-oxobutyl)barbituric Acid]	99.2	1.0 ± 0.5
O=C(Cc1ccccc1)C1C(=O)N(Cc2ccccc2)C(=O)N(Cc2ccccc2)C1=O [Compound No. 2, 1,3-Dibenzyl-5-(phenylacetyl)barbituric Acid]	99	2.2 ± 0.6
O=C(Cc1cccs1)C1C(=O)N(Cc2ccccc2)C(=O)N(Cc2ccccc2)C1=O [Compound No. 3, 1,3-Dibenzyl-5-(2-thienylacetyl)barbituric Acid]	96.7	7.0 ± 1.7
CC(C)CCN1C(=O)C(C(=O)CC(C)C)C(=O)N(CCC(C)C)C1=O [Compound No. 4, 1,3-Bis(3-methylbutyl)-5-(3-methyl-1-oxobutyl)barbituric Acid]	90.6	21.1 ± 4.3
